This is an account of results in patent US8415469B2, “Compounds and methods for kinase modulation, and indications therefor” (Plexxikon Inc., priority 2005, dated 2013).

The structures appear in SMILES notation.

Common to all, as to format: biochemical
In one experiment the target is T1, B-Raf V600E (Homo sapiens, UniProt P15056, V600E).
T1 construct: P4254. pFastBacBD-CDC37 BRAF D437-K722-X, V600E; His6 with pFastBac HT leader (TEV site) (N); made in house; host or cells: Sf9 (baculovirus; chaperone CDC37 co-expressed)
Kind of experiment: AlphaScreen kinase assay, B-Raf V600E. Conditions: read-out: IC50, activity toward kinase B-Raf V600E. On the technique in general: In Alpha technology, singlet oxygen from a donor bead excites a nearby acceptor bead.

In another experiment the target is T2, Kit (Homo sapiens, UniProt P10721).
T2 construct: P1332.N6 BI PTP KIT M552-K948-X COD; His6 (N); made in house; host or cells: E. coli (PTP1B co-expressed)
As to the kind of experiment: AlphaScreen kinase assay, Kit. Conditions: read-out: IC50, activity toward kinase Kit.

For another experiment, the target named is Akt3 (Homo sapiens, UniProt Q9Y243). As to the kind of experiment: AlphaScreen kinase assay, Akt3. The following applies: read-out: IC50, activity toward kinase Akt3. Summed up:
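Uses phospho-specific antibody on acceptor beads plus streptavidin donor beads capturing biotinylated peptide substrate; singlet oxygen from donor excites nearby acceptor. Inhibitors tested in 8-point, 1:3 titrations starting from 20 mM DMSO solutions.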

The target in a further experiment is T3, Yes (Homo sapiens, UniProt P07947).
T3 construct: purchased Invitrogen (Carlsbad, Calif.), screening service
As to the kind of experiment: Z'-Lyte FRET kinase assay (Invitrogen), Yes. The following applies: read-out: IC50, activity toward kinase Yes. Summed up:
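Z′-Lyte FRET assay: kinase phosphorylates 2 μM peptide substrate at 10 μM ATP in 50 mM HEPES pH 7.5, 50 mM MgCl2, 5 mM EGTA, 0.05% BRIJ-35, 1% DMSO, 1 h at room temperature. Protease development 1 h; coumarin/fluorescein emission ratio gives phosphorylation extent over compound concentration curves.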

T3 sequence (P07947 whole entry): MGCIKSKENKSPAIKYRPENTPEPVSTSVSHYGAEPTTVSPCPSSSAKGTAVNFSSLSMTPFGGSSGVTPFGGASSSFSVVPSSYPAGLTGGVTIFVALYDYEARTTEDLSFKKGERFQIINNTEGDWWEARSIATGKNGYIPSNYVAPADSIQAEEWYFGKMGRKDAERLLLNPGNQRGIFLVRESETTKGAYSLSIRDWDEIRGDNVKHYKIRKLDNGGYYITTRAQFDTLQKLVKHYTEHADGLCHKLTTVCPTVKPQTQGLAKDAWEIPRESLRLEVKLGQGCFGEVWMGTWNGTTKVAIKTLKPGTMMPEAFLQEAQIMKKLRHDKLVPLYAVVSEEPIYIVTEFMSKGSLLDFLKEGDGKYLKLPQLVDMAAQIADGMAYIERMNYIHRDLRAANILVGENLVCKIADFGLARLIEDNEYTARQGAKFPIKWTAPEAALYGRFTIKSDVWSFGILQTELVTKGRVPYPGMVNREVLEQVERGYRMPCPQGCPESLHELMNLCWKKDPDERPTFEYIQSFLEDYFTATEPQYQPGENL
T1 sequence (P15056 with tags, fused parts or gaps V600E): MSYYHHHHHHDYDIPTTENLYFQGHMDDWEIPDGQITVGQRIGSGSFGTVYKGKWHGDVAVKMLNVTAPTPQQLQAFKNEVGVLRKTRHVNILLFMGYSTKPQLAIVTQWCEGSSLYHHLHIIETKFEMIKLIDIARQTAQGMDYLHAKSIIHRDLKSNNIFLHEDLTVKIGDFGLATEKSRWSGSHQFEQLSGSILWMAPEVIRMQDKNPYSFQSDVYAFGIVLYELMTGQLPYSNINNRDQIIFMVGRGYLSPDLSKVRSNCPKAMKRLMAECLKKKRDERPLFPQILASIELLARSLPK
Sequence of Akt3 (Q9Y243 whole entry): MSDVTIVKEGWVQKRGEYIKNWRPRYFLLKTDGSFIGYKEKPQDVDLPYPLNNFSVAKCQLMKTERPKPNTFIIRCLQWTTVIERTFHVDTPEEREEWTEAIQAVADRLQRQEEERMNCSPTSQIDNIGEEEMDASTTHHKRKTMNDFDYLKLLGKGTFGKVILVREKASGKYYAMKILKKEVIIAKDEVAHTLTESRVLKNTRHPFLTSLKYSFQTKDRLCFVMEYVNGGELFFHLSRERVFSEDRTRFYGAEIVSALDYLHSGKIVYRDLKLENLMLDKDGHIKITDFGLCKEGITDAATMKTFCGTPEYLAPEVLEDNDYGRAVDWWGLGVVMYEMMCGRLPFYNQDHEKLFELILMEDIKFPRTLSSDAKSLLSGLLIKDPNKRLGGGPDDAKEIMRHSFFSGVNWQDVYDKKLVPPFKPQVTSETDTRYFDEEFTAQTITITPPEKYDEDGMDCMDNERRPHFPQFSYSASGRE
T2 sequence (P10721 with tags, fused parts or gaps): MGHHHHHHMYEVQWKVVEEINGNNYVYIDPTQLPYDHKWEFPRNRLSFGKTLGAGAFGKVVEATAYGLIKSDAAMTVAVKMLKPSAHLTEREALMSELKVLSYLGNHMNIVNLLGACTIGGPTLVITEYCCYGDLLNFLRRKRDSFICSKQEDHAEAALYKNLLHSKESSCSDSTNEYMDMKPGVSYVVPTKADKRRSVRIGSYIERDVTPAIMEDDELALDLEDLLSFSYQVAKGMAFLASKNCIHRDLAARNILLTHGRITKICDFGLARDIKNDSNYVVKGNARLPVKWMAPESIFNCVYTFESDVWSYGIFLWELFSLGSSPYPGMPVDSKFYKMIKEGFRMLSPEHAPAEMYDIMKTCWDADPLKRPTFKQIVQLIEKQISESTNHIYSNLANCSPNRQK

The term IC50 denotes the concentration at which inhibition is half-maximal. Turning to `Nc1cccc(-c2cnc3[nH]cc(C(=O)c4cc(O)ccc4F)c3c2)c1` [Compound P-0002], the IC50 on B-Raf V600E, on Kit and at Akt3 was ≤ 10 µM in each case.
With `Nc1cccc(-c2cnc3[nH]cc(C(=O)c4cccc(O)c4F)c3c2)c1` [Compound P-0004, [5-(3-amino-phenyl)-1H-pyrrolo[2,3-b]pyridin-3-yl]-(2-fluoro-3-hydroxy-phenyl)methanone], the IC50 at B-Raf V600E, on Kit and on Akt3 was ≤ 10 µM throughout.
With `CS(=O)(=O)c1cccc(-c2cnc3[nH]cc(C(=O)c4cc(O)ccc4F)c3c2)c1` [Compound P-0008, (2-Fluoro-5-hydroxy-phenyl)-[5-(3-methanesulfonyl-phenyl)-1H-pyrrolo[2,3-b]pyridin-3-yl]-methanone], the half-inhibitory concentration (IC50) on B-Raf V600E, at Kit and on Akt3 was ≤ 10 µM in each case.
As to `O=C(c1ccc(O)cc1)c1c[nH]c2ncc(-c3cccs3)cc12` [Compound P-0024, (4-Hydroxy-phenyl)-(5-thiophen-2-yl-1H-pyrrolo[2,3-b]pyridin-3-yl)-methanone], the half-maximal inhibitory concentration (IC50) on B-Raf V600E, on Kit, at Akt3 and on Yes was ≤ 10 µM each time.
Turning to `CS(=O)(=O)c1cccc(-c2cnc3[nH]cc(C(=O)c4cccc(O)c4F)c3c2)c1` [Compound P-0026, (2-Fluoro-3-hydroxy-phenyl)-[5-(3-methanesulfonylphenyl)1H-pyrrolo[2,3-b]pyridin-3-yl]-methanone], the concentration for half-maximal inhibition (IC50) on B-Raf V600E, at Kit and at Akt3 was ≤ 10 µM each time.
On to `O=C(c1cccc(O)c1)c1c[nH]c2nccc(-c3cc(F)cc(F)c3)c12` [Compound P-0039], for which the half-maximal inhibitory concentration (IC50) at B-Raf V600E and at Kit was ≤ 10 µM each time.
For the compound `Nc1cccc(-c2ccnc3[nH]cc(C(=O)c4cc(F)ccc4F)c23)c1` [Compound P-0046], the half-maximal inhibitory concentration (IC50) at B-Raf V600E and on Yes was ≤ 10 µM in each case.
With `NC(=O)c1cccc(-c2ccnc3[nH]cc(C(=O)c4cc(F)ccc4F)c23)c1` [Compound P-0049], the IC50 at B-Raf V600E and at Yes was ≤ 10 µM each time.
As for `O=C(c1ccccc1F)c1c[nH]c2nccc(-c3ccsc3)c12` [Compound P-0051], the IC50 on B-Raf V600E and on Yes was ≤ 10 µM each time.
On to `Cc1ccc(S(=O)(=O)NCc2c[nH]c3ncccc23)cc1` [Compound P-0058], for which the IC50 on Akt3 is ≤ 10 µM.
Consider `CS(=O)(=O)Nc1cccc(-c2ccnc3[nH]cc(C(=O)c4cc(F)ccc4F)c23)c1` [Compound P-0060], for which the IC50 at B-Raf V600E, on Akt3 and at Yes was ≤ 10 µM throughout.
For `O=C(c1cc(F)ccc1F)c1c[nH]c2nccc(-c3cccnc3)c12` [Compound P-0063], the IC50 on B-Raf V600E and on Yes was ≤ 10 µM each time.
As for `Cc1c(NS(C)(=O)=O)cccc1C(=O)c1c[nH]c2ncc(-c3ccccc3)cc12` [Compound P-0082, N-[2-Methyl-3-(5-phenyl-1H-pyrrolo[2,3-b]pyridine-3-carbonyl)-phenyl]-methanesulfonamide], the IC50 at B-Raf V600E, at Kit and at Yes was ≤ 10 µM in each case.
Take `OC(c1c(F)ccc(F)c1F)c1c[nH]c2ncc(-c3cccnc3)cc12` (stereo not shown) [Compound P-0101]: the IC50 at Kit and at Yes was ≤ 10 µM throughout.
Turning to `Oc1ccc(F)c(Cc2c[nH]c3ncc(Br)cc23)c1F` [Compound P-0122, 3-(5-Bromo-1H-pyrrolo[2,3-b]pyridin-3-ylmethyl)-2,4-difluoro-phenol], the IC50 at B-Raf V600E, at Kit, on Akt3 and at Yes was ≤ 10 µM each time.
In the case of `O=C(c1ccccc1F)c1c[nH]c2ncc(-c3ccsc3)cc12` [Compound P-0134], the IC50 on B-Raf V600E, on Kit and on Yes was ≤ 10 µM throughout.
Consider `CN(C)S(=O)(=O)Nc1ccc(F)c(Cc2c[nH]c3ncc(-c4cccnc4)cc23)c1F` [Compound P-0166], for which the IC50 on B-Raf V600E, at Kit and on Yes was ≤ 10 µM throughout.
As to `CS(=O)(=O)c1cccc(-c2ccnc3[nH]cc(C(=O)c4cc(F)ccc4F)c23)c1` [Compound P-0171], the IC50 at B-Raf V600E, on Kit and on Yes was ≤ 10 µM each time.
For the compound `O=C(c1cccc(O)c1)c1c[nH]c2ncc(-c3cccs3)cc12` [Compound P-0196], the IC50 at B-Raf V600E, at Kit and on Akt3 was ≤ 10 µM in each case.
For the compound `O=C(Nc1ccc(Cc2c[nH]c3ncccc23)cc1)Nc1cccc(C(F)(F)F)c1` [Compound P-0262, 1-[4-(1H-Pyrrolo[2,3-b]pyridin-3-ylmethyl)-phenyl]-3-(3-trifluoromethyl-phenyl)-urea], the IC50 at B-Raf V600E and at Kit was ≤ 10 µM in each case.
`O=C(c1cccc(O)c1F)c1c[nH]c2ncc(-c3cccs3)cc12` [Compound P-0521, (2-fluoro-3-hydroxy-phenyl)-(5-thiophen-2-yl-1H-pyrrolo[2,3-b]pyridin-3-yl)-methanone]: the IC50 on B-Raf V600E and at Kit was ≤ 10 µM in each case.
`CCCS(=O)(=O)Nc1ccc(F)c(C(=O)c2c[nH]c3ncc(-c4ccccc4)cc23)c1F` [Compound P-0636, Propane-1-sulfonic acid [2,4-difluoro-3-(5-phenyl-1H-pyrrolo[2,3-b]pyridine-3-carbonyl)-phenyl]-amide]: the IC50 at B-Raf V600E, at Kit and at Yes was ≤ 10 µM in each case.
Turning to `CCCS(=O)(=O)Nc1ccc(F)c(C(=O)c2c[nH]c3ncc(OC)cc23)c1F` [Compound P-0806, Propane-1-sulfonic acid [2,4-difluoro-3-(5-methoxy-1H-pyrrolo[2,3-b]pyridine-3-carbonyl)-phenyl]-amide], the IC50 on B-Raf V600E and on Kit was ≤ 10 µM in each case.
For the compound `CCCC(=O)Nc1ccc(F)c(Cc2c[nH]c3ncc(-c4cccnc4)cc23)c1F` [Compound P-1280], the IC50 on B-Raf V600E and on Kit was ≤ 10 µM each time.
In the case of `CCCCNC(=O)Nc1ccc(F)c(C(=O)c2c[nH]c3ncc(-c4cccnc4)cc23)c1F` [Compound P-1318, 1-Butyl-3-[2,4-difluoro-3-(5-pyridin-3-yl-1H-pyrrolo[2,3-b]pyridine-3-carbonyl)-phenyl]-urea], the half-maximal inhibitory concentration (IC50) on B-Raf V600E and on Kit was ≤ 10 µM in each case.
`COc1cccc(C(=O)c2c[nH]c3ncc(-c4cccc(NC(C)=O)c4)cc23)c1F` [Compound P-1336, N-{3-[3-(2-Fluoro-3-methoxy-benzoyl)-1H-pyrrolo[2,3-b]pyridin-5-yl]-phenyl}-acetamide]: the 50% inhibitory concentration (IC50) on B-Raf V600E and at Kit was ≤ 10 µM each time.
With `OCCOc1ccc(F)c(Cc2c[nH]c3ncc(-c4cccnc4)cc23)c1F` [Compound P-1394, 2-[2,4-Difluoro-3-(5-pyridin-3-yl-1H-pyrrolo[2,3-b]pyridin-3-ylmethyl)-phenoxy]-ethanol], the IC50 on B-Raf V600E and on Kit was ≤ 10 µM in each case.
Regarding `COc1cc(OC)cc(C(=O)c2c[nH]c3ncc(-c4cccc(NS(C)(=O)=O)c4)cc23)c1` [Compound P-1426, N-{3-[3-(3,5-Dimethoxy-benzoyl)-1H-pyrrolo[2,3-b]pyridin-5-yl]-phenyl}-methanesulfonamide], the half-inhibitory concentration (IC50) on B-Raf V600E and at Kit was ≤ 10 µM in each case.
